Experimental data reported in ChEMBL document CHEMBL1201862, “PubChem BioAssay data set” (2004).
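Assay format: 96-well plates, 48-hour exposure. GI50: concentration for 50% inhibition of growth.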 Active and inactive are the calls of the source. Rule as the data show it: active = GI50 up to about 1.1 µM and inactive = higher.

Tests used:
Experiment in all cases: NCI anticancer screen, dose series, 48 h
786-0 = tested on: 786-0
A498 = tested on: A498
A549 = tested on: A549
ACHN = tested on: ACHN
BT-549 = tested on: BT-549
CAKI-1 = tested on: CAKI-1
CCRF-CEM = tested on: CCRF-CEM
COLO 205 = tested on: COLO 205
DU-145 = tested on: DU-145
EKVX = tested on: EKVX
HCC 2998 = tested on: HCC 2998
HCT-116 = tested on: HCT-116
HCT-15 = tested on: HCT-15
HL-60 = tested on: HL-60
HOP-62 = tested on: HOP-62
HOP-92 = tested on: HOP-92
HT-29 = tested on: HT-29
Hs-578T = tested on: Hs-578T
IGROV-1 = tested on: IGROV-1
K562 = tested on: K562
KM12 = tested on: KM12
LOX IMVI = tested on: LOX IMVI
M14 = tested on: M14
MCF7 = tested on: MCF7
MDA-MB-231 = tested on: MDA-MB-231
MDA-MB-435 = tested on: MDA-MB-435
MDA-N = tested on: MDA-N
MOLT-4 = tested on: MOLT-4
Malme-3M = tested on: Malme-3M
NCI-H226 = tested on: NCI-H226
NCI-H23 = tested on: NCI-H23
NCI-H460 = tested on: NCI-H460
NCI-H522 = tested on: NCI-H522
NCI/ADR-RES = tested on: NCI/ADR-RES
OVCAR-3 = tested on: OVCAR-3
OVCAR-4 = tested on: OVCAR-4
OVCAR-5 = tested on: OVCAR-5
OVCAR-8 = tested on: OVCAR-8
PC-3 = tested on: PC-3
RPMI-8226 = tested on: RPMI-8226
RXF 393 = tested on: RXF 393
SF-268 = tested on: SF-268
SF-295 = tested on: SF-295
SF-539 = tested on: SF-539
SK-MEL-28 = tested on: SK-MEL-28
SK-MEL-2 = tested on: SK-MEL-2
SK-MEL-5 = tested on: SK-MEL-5
SK-OV-3 = tested on: SK-OV-3
SN12C = tested on: SN12C
SNB-19 = tested on: SNB-19
SNB-75 = tested on: SNB-75
SR = tested on: SR
SW-620 = tested on: SW-620
T47D = tested on: T47D
TK-10 = tested on: TK-10
U-251 = tested on: U-251
UACC-257 = tested on: UACC-257
UACC-62 = tested on: UACC-62
UO-31 = tested on: UO-31

Measured: GI50

O=P12N(CCN1c1ccccc1)CCN2c1ccccc1
inactive: 786-0 > 100 µM | A498 > 100 µM | A549 > 100 µM | ACHN > 100 µM | BT-549 > 100 µM | CAKI-1 > 100 µM | CCRF-CEM > 100 µM | COLO 205 > 100 µM | DU-145 > 100 µM | EKVX > 100 µM | HCC 2998 > 100 µM | HCT-116 > 100 µM | HL-60 > 100 µM | HOP-62 > 100 µM | HOP-92 80.7 µM | HT-29 > 100 µM | Hs-578T > 100 µM | IGROV-1 > 100 µM | K562 > 100 µM | KM12 > 100 µM | LOX IMVI > 100 µM | M14 66.8 µM | MCF7 > 100 µM | MDA-MB-231 > 100 µM | MDA-MB-435 > 100 µM | MDA-N > 100 µM | MOLT-4 > 100 µM | Malme-3M > 100 µM | NCI-H226 > 100 µM | NCI-H23 > 100 µM | NCI-H460 > 100 µM | NCI-H522 84.1 µM | NCI/ADR-RES > 100 µM | OVCAR-3 > 100 µM | OVCAR-4 > 100 µM | OVCAR-5 > 100 µM | OVCAR-8 > 100 µM | PC-3 > 100 µM | RPMI-8226 > 100 µM | RXF 393 > 100 µM | SF-268 > 100 µM | SF-295 > 100 µM | SF-539 > 100 µM | SK-MEL-28 > 100 µM | SK-MEL-2 > 100 µM | SK-MEL-5 > 100 µM | SK-OV-3 > 100 µM | SN12C > 100 µM | SNB-19 > 100 µM | SNB-75 63.7 µM | SR > 100 µM | SW-620 > 100 µM | T47D > 100 µM | TK-10 > 100 µM | U-251 > 100 µM | UACC-257 > 100 µM | UACC-62 > 100 µM | UO-31 > 100 µM
> 100 µM: HCT-15

CCC1(O)C=CC(=O)C=C1
active: SF-539 0.0422 µM
inactive: 786-0 18.4 µM | A498 24.5 µM | A549 31.6 µM | ACHN 20.6 µM | BT-549 43.5 µM | CAKI-1 31.4 µM | CCRF-CEM 60.7 µM | COLO 205 42.4 µM | DU-145 23.9 µM | EKVX 55.1 µM | HCC 2998 40.8 µM | HCT-116 36.1 µM | HL-60 35 µM | HOP-62 27.7 µM | HOP-92 31.8 µM | HT-29 31.8 µM | Hs-578T 66.5 µM | IGROV-1 17.2 µM | K562 39.5 µM | KM12 15 µM | LOX IMVI 11.6 µM | M14 17.5 µM | MCF7 24 µM | MDA-MB-231 17.2 µM | MDA-MB-435 29 µM | MDA-N 28.8 µM | MOLT-4 47.3 µM | Malme-3M 8.77 µM | NCI-H226 25.5 µM | NCI-H23 24.9 µM | NCI-H460 23.4 µM | NCI-H522 10.3 µM | NCI/ADR-RES 24 µM | OVCAR-3 27.5 µM | OVCAR-4 23.1 µM | OVCAR-5 33.1 µM | OVCAR-8 26.7 µM | PC-3 20.9 µM | RPMI-8226 32.4 µM | RXF 393 18.4 µM | SF-268 20.7 µM | SF-295 33.9 µM | SK-MEL-28 23.3 µM | SK-MEL-2 31.1 µM | SK-MEL-5 31.8 µM | SK-OV-3 38.5 µM | SN12C 32.9 µM | SNB-19 18.1 µM | SNB-75 33.3 µM | SR 36.8 µM | SW-620 36.7 µM | T47D 22.7 µM | TK-10 21.1 µM | U-251 15.3 µM | UACC-257 18.8 µM | UACC-62 17.2 µM | UO-31 18.1 µM
17.9 µM: HCT-15

Cn1c2c3c(F)c(F)ccc3nc-2cc2ccccc21
inactive: A549 2.34 µM | BT-549 3 µM | CAKI-1 2.39 µM | CCRF-CEM 1.91 µM | COLO 205 2.08 µM | DU-145 1.34 µM | EKVX 12.4 µM | HCC 2998 1.32 µM | HL-60 13 µM | HOP-62 1.35 µM | HOP-92 4.76 µM | HT-29 1.52 µM | Hs-578T 12.2 µM | IGROV-1 3.42 µM | K562 3.11 µM | M14 2.11 µM | MDA-MB-231 3.3 µM | MDA-MB-435 3.88 µM | MDA-N 3.64 µM | Malme-3M 2.7 µM | NCI-H226 2.59 µM | NCI-H23 1.4 µM | NCI-H522 3.03 µM | NCI/ADR-RES 1.49 µM | OVCAR-3 2.33 µM | OVCAR-4 10.1 µM | OVCAR-5 1.92 µM | OVCAR-8 1.74 µM | PC-3 2.85 µM | RXF 393 4.05 µM | SF-268 3.24 µM | SF-539 2.06 µM | SK-MEL-28 4.17 µM | SK-MEL-2 3.27 µM | SK-MEL-5 3.04 µM | SK-OV-3 5.57 µM | SNB-19 3.79 µM | SR 2.33 µM | SW-620 1.49 µM | U-251 1.58 µM | UACC-257 3.83 µM | UACC-62 3.44 µM | UO-31 1.36 µM
1.49 µM: HCT-15
active: 786-0 0.519 µM | A498 0.443 µM | ACHN 0.583 µM | HCT-116 0.125 µM | KM12 0.927 µM | LOX IMVI 1.07 µM | MCF7 0.431 µM | MOLT-4 0.324 µM | NCI-H460 1.04 µM | RPMI-8226 0.711 µM | SF-295 1.12 µM | SN12C 0.861 µM | SNB-75 0.805 µM | T47D 0.582 µM | TK-10 0.828 µM
